What was measured:
[1] = biological target: T1, Sodium/glucose cotransporter 1 (Homo sapiens, UniProt P13866); experiment: Inhibition of SGLT1 transfected in african green monkey COS1 cells assessed as alpha-D-[U-14C]glucopyranoside uptake after 30 mins by scintillation counting; format: cell-based, COS-1
T1 sequence (P13866 whole entry): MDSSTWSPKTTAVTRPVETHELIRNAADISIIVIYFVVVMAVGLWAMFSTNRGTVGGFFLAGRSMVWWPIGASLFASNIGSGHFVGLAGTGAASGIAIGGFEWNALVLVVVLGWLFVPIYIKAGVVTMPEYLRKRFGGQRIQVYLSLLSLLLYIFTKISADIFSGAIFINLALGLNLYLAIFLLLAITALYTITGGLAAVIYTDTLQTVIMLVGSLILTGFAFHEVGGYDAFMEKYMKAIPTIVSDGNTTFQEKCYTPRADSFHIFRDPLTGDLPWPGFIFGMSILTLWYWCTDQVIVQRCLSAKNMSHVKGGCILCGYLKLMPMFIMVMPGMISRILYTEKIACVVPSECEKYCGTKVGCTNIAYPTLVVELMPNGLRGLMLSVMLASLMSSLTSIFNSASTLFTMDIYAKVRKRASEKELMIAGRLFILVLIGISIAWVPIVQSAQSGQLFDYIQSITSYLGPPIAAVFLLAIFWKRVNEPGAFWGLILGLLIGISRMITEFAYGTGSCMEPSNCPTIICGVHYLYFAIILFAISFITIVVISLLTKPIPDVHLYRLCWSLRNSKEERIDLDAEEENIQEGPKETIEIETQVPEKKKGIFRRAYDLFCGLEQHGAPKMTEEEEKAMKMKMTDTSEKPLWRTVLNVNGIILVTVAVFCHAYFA

[2] = biological target: T2, Sodium/glucose cotransporter 2 (Homo sapiens, UniProt P31639); experiment: Inhibition of SGLT2 transfected in african green monkey COS1 cells assessed as alpha-D-[U-14C]glucopyranoside uptake after 30 mins by scintillation counting; format: cell-based, COS-1
T2 sequence (P31639 whole entry): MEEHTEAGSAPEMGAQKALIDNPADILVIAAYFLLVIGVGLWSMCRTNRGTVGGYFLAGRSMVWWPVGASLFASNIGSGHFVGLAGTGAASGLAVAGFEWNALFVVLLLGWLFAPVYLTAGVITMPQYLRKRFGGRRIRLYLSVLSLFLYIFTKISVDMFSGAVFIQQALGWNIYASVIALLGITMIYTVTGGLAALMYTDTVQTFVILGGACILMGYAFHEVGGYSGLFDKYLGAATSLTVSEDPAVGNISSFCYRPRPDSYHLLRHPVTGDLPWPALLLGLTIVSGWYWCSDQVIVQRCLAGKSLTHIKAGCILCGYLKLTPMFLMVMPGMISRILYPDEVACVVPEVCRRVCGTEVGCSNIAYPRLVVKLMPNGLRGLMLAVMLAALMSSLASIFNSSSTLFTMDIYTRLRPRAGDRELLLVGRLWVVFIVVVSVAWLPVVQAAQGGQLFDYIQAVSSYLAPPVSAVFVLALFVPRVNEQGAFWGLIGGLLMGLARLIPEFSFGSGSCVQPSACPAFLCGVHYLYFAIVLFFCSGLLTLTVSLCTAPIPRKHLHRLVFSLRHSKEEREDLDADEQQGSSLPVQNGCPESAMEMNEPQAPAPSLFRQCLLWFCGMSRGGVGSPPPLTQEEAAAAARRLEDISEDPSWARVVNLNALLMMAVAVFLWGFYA

SMILES	IC50 ([1]; cos-1)	IC50 ([2]; cos-1)	IC50 ([1]; read-out: IC50) [µM]	IC50 ([2]; read-out: IC50) [µM]
COc1cc(O)c2c(c1[C@@H]1O[C@H](CO)[C@@H](O)[C@H](O)[C@H]1O)O[C@H](c1ccc(O)c(O)c1)[C@@H](O)C2=O [NOIDESOL A]	Not Active	Not Active		
Oc1cc(O)cc([C@@H]2c3cc([C@@H]4Oc5cc(/C=C/c6ccc(O)cc6O)cc(O)c5[C@H]4c4cc(O)cc(O)c4)c(O)cc3O[C@H]2c2ccc(O)cc2O)c1 [GNEYULIN A]			27	25
Oc1cc(O)cc([C@@H]2c3cc([C@@H]4Oc5cc(-c6cc7ccc(O)cc7o6)cc(O)c5[C@H]4c4cc(O)cc(O)c4)c(O)cc3O[C@H]2c2ccc(O)cc2O)c1 [GNEYULIN B]			37	18
COc1ccc([C@H]2Oc3cc(O)c([C@@H]4O[C@H](CO)[C@@H](O)[C@H](O)[C@H]4O)c(O)c3C(=O)[C@@H]2O)cc1O [NOIDESOL B]	Not Active	Not Active		
